In ChEMBL document CHEMBL5532720, “A Potent Solution for Tumor Growth and Angiogenesis Suppression via an ELR+CXCL-CXCR1/2 Pathway Inhibitor” (ACS Med Chem Lett, 2024):
In brackets after ≈: the same amount, converted by molar mass. Activity calls are given as the source filed them. No cut-off for these calls is given here.

How the values were obtained:
[1] = Antiproliferative activity against human Cisplatin and radiotherapy resistant CAL27RR cells incubated for 48 hrs by XTT assay; assay type: functional, cell-based
A498 [2] = assay: Inhibition of CXCL8-induced cell migration in human A498 cells at 0.5 uM incubated for 24 hrs by crystal violet staining based analysis relative to control; assay type: functional
[3] = Genotoxicity in Salmonella typhimurium TA98 upto 100 uM in presence of S9 fraction by Ames test; assay type: toxicity, subcellular; conditions: salmonella enterica subsp. enterica serovar typhimurium, s9, 100 µM
A498 [4] = assay: Effect on VEGFA production in human A498 cells at 1 to 2.5 uM incubated for 48 hrs by ELISA; assay type: functional, cell-based; conditions: dose 1-2.5 µM
A498 [5] = assay: Downregulation of CXCL1 mRNA expression in human A498 cells at 1 to 2.5 uM incubated for 48 hrs by qPCR analysis; assay type: functional, cell-based; conditions: dose 1-2.5 µM
[6] = target: Aurora kinase B (Homo sapiens) (UniProt Q96GD4); assay: Inhibition of AURKB (unknown origin) at 10 uM in presence of ATP at Km concentration
[7] = target: CDK7/Cyclin H/MNAT1 (Homo sapiens) (UniProt P51946+P50613+P51948); assay: Inhibition of CDK7/cyclin H/MNAT1 (unknown origin) at 10 uM in presence of ATP at Km concentration; assay type: protein-complex assay
[8] = target: Casein kinase I isoform gamma-3 (Homo sapiens) (UniProt Q9Y6M4); assay: Inhibition of CSNK1G3 (unknown origin) at 10 uM in presence of ATP at Km concentration
[9] = target: Interleukin-1 receptor-associated kinase 4 (Homo sapiens) (UniProt Q9NWZ3); assay: Inhibition of IRAK4 (unknown origin) at 10 uM in presence of ATP at Km concentration
Sequence of Interleukin-1 receptor-associated kinase 4 (Homo sapiens) (Q9NWZ3 whole entry): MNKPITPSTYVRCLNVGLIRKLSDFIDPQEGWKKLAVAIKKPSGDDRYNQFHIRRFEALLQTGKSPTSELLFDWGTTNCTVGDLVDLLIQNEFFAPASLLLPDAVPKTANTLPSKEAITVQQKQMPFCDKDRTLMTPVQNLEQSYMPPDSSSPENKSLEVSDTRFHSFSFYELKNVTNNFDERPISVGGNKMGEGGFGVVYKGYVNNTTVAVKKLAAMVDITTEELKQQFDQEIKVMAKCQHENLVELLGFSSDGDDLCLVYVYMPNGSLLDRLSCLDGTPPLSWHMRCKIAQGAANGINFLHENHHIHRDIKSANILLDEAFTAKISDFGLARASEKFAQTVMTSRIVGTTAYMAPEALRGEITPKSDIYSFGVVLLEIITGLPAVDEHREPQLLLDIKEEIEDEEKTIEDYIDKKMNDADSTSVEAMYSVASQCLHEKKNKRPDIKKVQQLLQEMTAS

[10] = target: Mitogen-activated protein kinase kinase kinase kinase 2 (Homo sapiens) (UniProt Q12851); assay: Inhibition of MAP4K2 (unknown origin) at 10 uM in presence of ATP at Km concentration
Sequence of Mitogen-activated protein kinase kinase kinase kinase 2 (Homo sapiens) (Q12851 whole entry): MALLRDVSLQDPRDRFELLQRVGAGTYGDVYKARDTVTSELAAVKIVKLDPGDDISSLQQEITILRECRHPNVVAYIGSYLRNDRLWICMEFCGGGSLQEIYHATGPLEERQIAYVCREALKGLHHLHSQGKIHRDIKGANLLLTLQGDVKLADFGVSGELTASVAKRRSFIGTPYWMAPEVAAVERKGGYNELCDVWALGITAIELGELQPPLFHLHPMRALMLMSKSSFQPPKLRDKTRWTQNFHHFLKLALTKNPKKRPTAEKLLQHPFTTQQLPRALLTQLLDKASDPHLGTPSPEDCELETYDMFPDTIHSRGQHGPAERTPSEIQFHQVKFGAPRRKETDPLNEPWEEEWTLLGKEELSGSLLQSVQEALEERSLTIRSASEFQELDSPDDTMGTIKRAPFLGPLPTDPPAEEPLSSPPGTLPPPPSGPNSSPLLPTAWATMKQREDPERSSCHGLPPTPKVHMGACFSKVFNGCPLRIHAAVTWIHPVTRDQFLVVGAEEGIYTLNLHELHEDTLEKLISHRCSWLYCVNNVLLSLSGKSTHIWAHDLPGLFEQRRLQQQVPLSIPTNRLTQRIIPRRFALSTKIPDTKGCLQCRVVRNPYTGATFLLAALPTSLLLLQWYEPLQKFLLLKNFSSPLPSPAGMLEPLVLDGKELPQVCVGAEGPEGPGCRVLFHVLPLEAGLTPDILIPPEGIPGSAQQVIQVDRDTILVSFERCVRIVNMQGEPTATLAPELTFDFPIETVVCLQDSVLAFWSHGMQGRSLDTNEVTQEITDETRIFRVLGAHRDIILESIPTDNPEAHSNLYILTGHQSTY

[11] = target: Mitogen-activated protein kinase kinase kinase kinase 3 (Homo sapiens) (UniProt Q8IVH8); assay: Inhibition of MAP4K3 (unknown origin) at 10 uM in presence of ATP at Km concentration
Sequence of Mitogen-activated protein kinase kinase kinase kinase 3 (Homo sapiens) (Q8IVH8 whole entry): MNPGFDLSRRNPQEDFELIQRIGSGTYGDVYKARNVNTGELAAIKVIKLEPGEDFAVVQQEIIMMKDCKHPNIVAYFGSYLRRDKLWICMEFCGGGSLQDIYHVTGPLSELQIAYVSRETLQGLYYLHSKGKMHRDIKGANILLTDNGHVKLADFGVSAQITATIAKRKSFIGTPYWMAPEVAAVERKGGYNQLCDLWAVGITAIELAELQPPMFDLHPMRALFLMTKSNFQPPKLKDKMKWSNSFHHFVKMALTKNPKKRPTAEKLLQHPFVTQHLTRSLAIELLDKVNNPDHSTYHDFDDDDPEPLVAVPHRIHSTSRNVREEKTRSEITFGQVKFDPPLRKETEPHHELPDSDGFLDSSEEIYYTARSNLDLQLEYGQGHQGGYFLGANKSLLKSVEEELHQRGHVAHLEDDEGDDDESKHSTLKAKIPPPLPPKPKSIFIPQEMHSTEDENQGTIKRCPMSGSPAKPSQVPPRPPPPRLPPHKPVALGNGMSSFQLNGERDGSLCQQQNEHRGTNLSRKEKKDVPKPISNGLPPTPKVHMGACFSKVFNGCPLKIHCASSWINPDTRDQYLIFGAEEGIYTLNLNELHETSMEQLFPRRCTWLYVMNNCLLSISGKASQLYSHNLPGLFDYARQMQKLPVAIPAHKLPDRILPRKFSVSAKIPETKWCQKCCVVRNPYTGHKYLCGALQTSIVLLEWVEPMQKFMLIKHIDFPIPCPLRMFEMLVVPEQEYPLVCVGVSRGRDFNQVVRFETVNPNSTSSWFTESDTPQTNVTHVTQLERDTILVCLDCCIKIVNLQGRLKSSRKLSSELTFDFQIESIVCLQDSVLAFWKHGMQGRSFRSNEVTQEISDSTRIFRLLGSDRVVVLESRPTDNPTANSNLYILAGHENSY

[12] = target: Misshapen-like kinase 1 (Homo sapiens) (UniProt Q8N4C8); assay: Inhibition of MINK1 (unknown origin) at 10 uM in presence of ATP at Km concentration
[13] = target: Myosin-IIIb (Homo sapiens) (UniProt Q8WXR4); assay: Inhibition of MYO3B (unknown origin) at 10 uM in presence of ATP at Km concentration
[14] = target: Serine/threonine-protein kinase PAK 4 (Homo sapiens) (UniProt O96013); assay: Inhibition of PAK4 (unknown origin) at 10 uM in presence of ATP at Km concentration
[15] = target: [Pyruvate dehydrogenase (acetyl-transferring)] kinase isozyme 1, mitochondrial (Homo sapiens) (UniProt Q15118); assay: Inhibition of PDK1 (unknown origin) at 10 uM in presence of ATP at Km concentration
[16] = target: Phosphatidylinositol 4-phosphate 3-kinase C2 domain-containing subunit alpha (Homo sapiens) (UniProt O00443); assay: Inhibition of PIK3C2A (unknown origin) at 10 uM in presence of ATP at Km concentration
Sequence of Phosphatidylinositol 4-phosphate 3-kinase C2 domain-containing subunit alpha (Homo sapiens) (O00443 whole entry, the tested form may be a part): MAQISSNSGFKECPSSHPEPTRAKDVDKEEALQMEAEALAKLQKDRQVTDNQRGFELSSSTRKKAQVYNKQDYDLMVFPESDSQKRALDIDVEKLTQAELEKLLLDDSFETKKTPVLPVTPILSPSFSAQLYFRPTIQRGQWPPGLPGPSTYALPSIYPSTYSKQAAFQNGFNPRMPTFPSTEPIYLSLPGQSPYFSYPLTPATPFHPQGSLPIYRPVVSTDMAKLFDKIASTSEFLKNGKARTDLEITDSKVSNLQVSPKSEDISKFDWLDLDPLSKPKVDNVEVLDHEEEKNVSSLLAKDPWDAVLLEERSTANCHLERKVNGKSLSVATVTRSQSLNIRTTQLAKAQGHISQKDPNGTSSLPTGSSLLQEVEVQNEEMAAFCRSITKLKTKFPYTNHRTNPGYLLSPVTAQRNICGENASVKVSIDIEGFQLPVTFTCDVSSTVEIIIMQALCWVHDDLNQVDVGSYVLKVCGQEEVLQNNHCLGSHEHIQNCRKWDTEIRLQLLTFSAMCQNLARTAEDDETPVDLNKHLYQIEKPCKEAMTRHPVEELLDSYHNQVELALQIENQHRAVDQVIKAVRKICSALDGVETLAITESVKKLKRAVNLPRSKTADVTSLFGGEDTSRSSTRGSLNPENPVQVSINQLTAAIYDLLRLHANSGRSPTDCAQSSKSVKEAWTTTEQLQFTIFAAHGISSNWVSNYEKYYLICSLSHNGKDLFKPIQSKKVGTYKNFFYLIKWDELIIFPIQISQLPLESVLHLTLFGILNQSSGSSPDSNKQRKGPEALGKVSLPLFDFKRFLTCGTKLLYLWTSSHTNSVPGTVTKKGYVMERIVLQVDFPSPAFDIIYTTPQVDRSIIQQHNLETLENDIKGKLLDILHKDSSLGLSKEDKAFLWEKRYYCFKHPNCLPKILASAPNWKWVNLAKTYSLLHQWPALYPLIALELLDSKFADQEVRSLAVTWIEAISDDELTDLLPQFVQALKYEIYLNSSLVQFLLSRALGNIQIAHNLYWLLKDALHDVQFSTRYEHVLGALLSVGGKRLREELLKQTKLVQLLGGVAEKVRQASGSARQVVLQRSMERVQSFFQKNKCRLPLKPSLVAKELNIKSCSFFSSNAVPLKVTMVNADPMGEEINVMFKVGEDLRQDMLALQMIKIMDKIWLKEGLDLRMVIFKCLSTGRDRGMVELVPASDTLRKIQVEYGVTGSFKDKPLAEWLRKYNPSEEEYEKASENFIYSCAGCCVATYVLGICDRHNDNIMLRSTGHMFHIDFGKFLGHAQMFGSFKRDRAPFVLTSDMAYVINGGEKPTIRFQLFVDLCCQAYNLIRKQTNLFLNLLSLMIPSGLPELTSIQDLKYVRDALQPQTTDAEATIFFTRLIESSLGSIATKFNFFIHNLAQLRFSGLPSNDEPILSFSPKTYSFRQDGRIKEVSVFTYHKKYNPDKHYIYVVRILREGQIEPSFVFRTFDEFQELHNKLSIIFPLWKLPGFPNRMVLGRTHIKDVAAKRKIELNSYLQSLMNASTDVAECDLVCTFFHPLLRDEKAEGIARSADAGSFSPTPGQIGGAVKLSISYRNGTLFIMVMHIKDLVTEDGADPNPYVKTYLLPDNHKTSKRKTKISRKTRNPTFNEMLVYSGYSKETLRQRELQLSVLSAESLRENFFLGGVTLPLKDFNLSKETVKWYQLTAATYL

[17] = target: Serine/threonine-protein kinase PLK1 (Homo sapiens) (UniProt P53350); assay: Inhibition of PLK1 (unknown origin) at 10 uM in presence of ATP at Km concentration
[18] = target: Serine/threonine-protein kinase D2 (Homo sapiens) (UniProt Q9BZL6); assay: Inhibition of PRKD2 (unknown origin) at 10 uM in presence of ATP at Km concentration
[19] = target: cGMP-dependent protein kinase 1 (Homo sapiens) (UniProt Q13976); assay: Inhibition of PRKG1 (unknown origin) at 10 uM in presence of ATP at Km concentration
Sequence of cGMP-dependent protein kinase 1 (Homo sapiens) (Q13976 whole entry): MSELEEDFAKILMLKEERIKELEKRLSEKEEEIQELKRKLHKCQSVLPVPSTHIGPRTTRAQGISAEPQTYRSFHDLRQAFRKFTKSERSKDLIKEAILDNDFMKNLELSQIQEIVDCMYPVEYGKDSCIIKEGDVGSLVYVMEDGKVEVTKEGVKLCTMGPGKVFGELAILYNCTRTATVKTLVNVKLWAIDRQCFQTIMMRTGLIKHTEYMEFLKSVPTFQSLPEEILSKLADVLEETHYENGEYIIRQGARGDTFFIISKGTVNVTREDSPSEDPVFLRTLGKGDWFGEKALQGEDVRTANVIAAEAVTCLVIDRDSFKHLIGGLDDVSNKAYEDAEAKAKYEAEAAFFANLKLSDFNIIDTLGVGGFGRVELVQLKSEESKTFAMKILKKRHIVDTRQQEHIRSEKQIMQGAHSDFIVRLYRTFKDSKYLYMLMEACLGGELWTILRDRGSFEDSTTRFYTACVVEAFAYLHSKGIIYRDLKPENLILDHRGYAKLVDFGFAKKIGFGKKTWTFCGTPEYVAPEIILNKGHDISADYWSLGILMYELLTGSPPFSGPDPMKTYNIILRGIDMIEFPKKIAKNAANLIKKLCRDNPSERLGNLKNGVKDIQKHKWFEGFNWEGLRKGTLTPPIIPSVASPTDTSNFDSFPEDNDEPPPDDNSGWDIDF

[20] = target: Receptor-interacting serine/threonine-protein kinase 2 (Homo sapiens) (UniProt O43353); assay: Inhibition of RIPK2 (unknown origin) at 10 uM in presence of ATP at Km concentration
Sequence of Receptor-interacting serine/threonine-protein kinase 2 (Homo sapiens) (O43353 whole entry): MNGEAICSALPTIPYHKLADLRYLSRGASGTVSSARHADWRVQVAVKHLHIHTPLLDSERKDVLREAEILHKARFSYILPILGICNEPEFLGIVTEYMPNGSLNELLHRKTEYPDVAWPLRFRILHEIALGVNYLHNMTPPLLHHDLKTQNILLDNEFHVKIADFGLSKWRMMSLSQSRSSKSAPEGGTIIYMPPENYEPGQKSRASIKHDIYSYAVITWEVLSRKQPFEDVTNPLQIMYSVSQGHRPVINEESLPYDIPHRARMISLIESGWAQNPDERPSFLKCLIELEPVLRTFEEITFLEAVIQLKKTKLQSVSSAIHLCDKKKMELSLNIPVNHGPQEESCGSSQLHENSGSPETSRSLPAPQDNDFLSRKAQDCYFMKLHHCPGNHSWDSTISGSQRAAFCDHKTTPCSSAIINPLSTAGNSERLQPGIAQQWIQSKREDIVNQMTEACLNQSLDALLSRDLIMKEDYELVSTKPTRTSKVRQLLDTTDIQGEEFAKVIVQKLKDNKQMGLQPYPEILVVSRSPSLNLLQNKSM

[21] = target: Ribosomal protein S6 kinase alpha-4 (Homo sapiens) (UniProt O75676); assay: Inhibition of RPS6KA4 (unknown origin) at 10 uM in presence of ATP at Km concentration
[22] = target: Angiopoietin-1 receptor (Homo sapiens) (UniProt Q02763); assay: Inhibition of TEK (unknown origin) at 10 uM in presence of ATP at Km concentration
[23] = target: Serine/threonine-protein kinase tousled-like 2 (Homo sapiens) (UniProt Q86UE8); assay: Inhibition of TLK2 (unknown origin) at 10 uM in presence of ATP at Km concentration
TIME = assay: Antiangiogenic activity in human TIME cells assessed as disruption of blood vessel network at 2.5 uM incubated for 24 hrs; assay type: functional, cell-based
A498 [24] = assay: Antimetastatic activity against human A498 cells labeled with vybrant DiD cell-labeling solution xenografted in zebrafish embryo assessed as inhibition of neovascularization by measuring decrease in fluorescence intensity of GFP labeled blood vessel at 1 uM incubated for 72 hrs by fluorescence microscopic imaging analysis; assay type: functional, cell-based
[25] = Lipophilicity, logD of compound at pH 7.4; assay type: physicochemical; conditions: buffer
[26] = Stability of compound in DMSO measured after 24 hrs; assay type: physicochemical
[27] = Aqueous solubility of compound in water; assay type: physicochemical
[28] = Aqueous solubility of compound in PBS; assay type: physicochemical
[29] = Aqueous solubility of compound in SGF at pH 2; assay type: ADME
[30] = Protein binding in mouse plasma; assay type: ADME, cell-free; conditions: read-out: PPB (converted)
[31] = Protein binding in human plasma; assay type: ADME, cell-free; conditions: read-out: PPB (converted)
[32] = Stability in mouse plasma assessed as compound remaining measured after 120 mins; assay type: ADME, cell-free; conditions: read-out: Stability
[33] = Stability in human plasma assessed as half-life; assay type: ADME, cell-free
[34] = Stability in human plasma assessed as compound remaining measured after 120 mins; assay type: ADME, cell-free; conditions: read-out: Stability
[35] = Stability in human microsomes assessed as half-life; assay type: ADME, Microsome
[36] = Stability in human microsomes assessed as compound remaining measured after 1 hrs; assay type: ADME, Microsome; conditions: read-out: Stability
[37] = Stability in mouse hepatocytes assessed as half-life; assay type: ADME, cell-based, Hepatocyte
[38] = Stability in human hepatocytes assessed as half-life; assay type: ADME, cell-based, Hepatocyte
[39] = C0 in NOD SCID mouse at 1 mg/kg, iv; assay type: ADME, organism-based; conditions: in vivo
[40] = Cmax in NOD SCID mouse at 100 mg/kg, po; assay type: ADME, organism-based; conditions: in vivo
[41] = Tmax in NOD SCID mouse at 100 mg/kg, po; assay type: ADME, organism-based; conditions: in vivo
[42] = Half-life in NOD SCID mouse at 50 mg/kg, po; assay type: ADME, organism-based; conditions: in vivo
[43] = Half-life in NOD SCID mouse at 200 mg/kg, po; assay type: ADME, organism-based; conditions: in vivo
[44] = AUC (0 to infinity) in NOD SCID mouse at 100 mg/kg, po; assay type: ADME, organism-based; conditions: in vivo
[45] = Toxicity in athymic nude mouse xenografted with human 786-0 cells assessed as effect on behavior at 100 mg/kg, po administered twice daily via gavage for 28 days; assay type: organism-based; conditions: in vivo, 672 h, time 28 day

inhibition [6]: inactive
inhibition [7]: inactive
inhibition [8]: inactive
inhibition [9]: inactive
inhibition [10]: inactive
inhibition [11]: inactive
inhibition [12]: inactive
inhibition [13]: inactive
inhibition [14]: inactive
inhibition [15]: inactive
inhibition [16]: inactive
inhibition [17]: inactive
inhibition [18]: inactive
inhibition [19]: inactive
inhibition [20]: inactive
inhibition [21]: inactive
inhibition [22]: inactive
inhibition [23]: inactive
logD [25]: 2.86
Stability [26]: Stable
solubility [27]: 1.2 µM (≈ 0.46 µg/mL)
solubility [28]: 1.9 µM (≈ 0.728 µg/mL)
solubility [29]: 3.4 µM (≈ 1.3 µg/mL)
fraction unbound [30]: 0.004
fraction unbound [31]: 0.004
remaining at 2 h [32]: 101%
half-life [33]: > 4.82 h
remaining at 2 h [34]: 85%
half-life [35]: > 1 h
remaining at 1 h [36]: 71%
half-life [37]: 0.352 h
half-life [38]: 0.643 h
C0 [39]: 3.6 µM
Cmax [40]: 2.8 µM
Tmax [41]: 1.5 h
half-life [42]: 1.8 h
half-life [43]: 2.7 h
AUC(0-inf) [44]: 14200 ng·h/mL
SMILES: O=C(Nc1cc(Cl)cc(Cl)c1)Nc1nc2ccc([N+](=O)[O-])cc2s1
IC50 [1]: 2500 nM
inhibition at 0.5 µM (A498 [2]): > 50%
Activity [3]: Non-Toxic
Activity (A498 [4]): inactive
Activity (A498 [5]): Active
Activity (TIME): Active
Activity (A498 [24]): Active
Activity [45]: Non-Toxic
